Experiments:
Assay in all cases: AUC of viability dose-response curve (% viability x log10 dose units); higher = less sensitive
Conditions in all cases: 48 h
SEM cells = system: SEM cells
Procedure, shortened: (§1)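 In 1536-well plates, leukemia cells adapted to each medium (500 or 1000 cells/well) were exposed for 48 h at 37°C to library compounds in DMSO across 11 threefold doses, 47 μM down to 0.79 nM. Viability was read by CellTiter-Glo One luminescence and normalised per plate to DMSO and cell-free wells. A four-parameter log-logistic fit over log10 doses was integrated by trapezoidal rule. This yielded the area under the curve, with over-full-viability curves scaled and quality-control failures dropped.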

NOMO1 = system: NOMO1
Procedure, shortened: as §1

P12-Ichikawa = system: P12-Ichikawa
Procedure, shortened: as §1

[1] = RPMI 5 mM glucose + 10% dialyzed FBS

SMILES | AUC of viability dose-response curve (SEM cells; HPLM + 10% dialyzed FBS) | AUC of viability dose-response curve (SEM cells; RPMI 5 mM glucose + 10% FBS) | AUC of viability dose-response curve (SEM cells; [1]) | AUC of viability dose-response curve (NOMO1; HPLM + 10% dialyzed FBS) | AUC of viability dose-response curve (NOMO1; RPMI 5 mM glucose + 10% FBS) | AUC of viability dose-response curve (NOMO1; [1]) | AUC of viability dose-response curve (P12-Ichikawa; HPLM + 10% dialyzed FBS) | AUC of viability dose-response curve (P12-Ichikawa; RPMI 5 mM glucose + 10% FBS) | AUC of viability dose-response curve (P12-Ichikawa; [1])
COc1cc(N2CCC(N3CCN(C)CC3)CC2)ccc1Nc1ncc(Cl)c(Nc2ccccc2[S+](=O)([O-])C(C)C)n1 | 284 | 273 | 300 |  |  |  |  |  | 
Clc1ccc(C(c2ccccc2Cl)C(Cl)Cl)cc1 (stereo not drawn) |  |  |  | 427 | 456 | 448 | 452 | 436 | 432
CCOC(=O)c1c(CSc2ccccc2)n(C)c2cc(Br)c(O)c(CN(C)C)c12 | 463 | 459 | 469 | 471 | 461 | 450 | 464 | 461 | 464
c1cc2c(cc1[C@H]1OC[C@H]3[C@@H]1CO[C@@H]3c1ccc3c(c1)OCO3)OCO2 | 468 | 454 | 455 | 467 | 462 | 456 | 470 | 452 | 473
NCCOc1cc(C(=O)Nc2cc(OCCN)c3ccccc3n2)nc(C(=O)Nc2cc(OCCN)c3ccccc3n2)c1 | 148 | 122 | 170 |  |  |  |  |  | 
CCCCN1CCC(CNC(=O)c2c3n(c4ccccc24)CCCO3)CC1 | 431 | 474 | 462 | 474 | 467 | 470 | 461 | 459 | 465
O=C1c2ccccc2-c2n[nH]c3cccc1c23 |  |  |  | 429 | 433 | 449 | 416 | 401 | 422
O=C(Nc1cccnc1)N1CCC(Cc2cccc(Oc3ccc(C(F)(F)F)cn3)c2)CC1 | 337 | 299 | 303 | 405 | 427 | 425 | 361 | 346 | 344
COCCCC/C(=N\OCCN)c1ccc(C(F)(F)F)cc1 | 389 | 398 | 462 | 358 | 369 | 369 | 400 | 371 | 373
O=C(NOCC1CC1)c1ccc(F)c(F)c1Nc1ccc(I)cc1Cl | 455 | 440 | 434 | 362 | 389 | 382 | 447 | 429 | 450
CO[C@H]1C[C@@H]2CC[C@@H](C)[C@@](O)(O2)C(=O)C(=O)N2CCCC[C@H]2C(=O)O[C@H]([C@@H](C)C[C@@H]2CC[C@@H](O)[C@H](OC)C2)CC(=O)[C@H](C)/C=C(\C)[C@@H](O)[C@@H](OC)C(=O)[C@H](C)C[C@H](C)/C=C/C=C/C=C/1C | 394 | 382 | 409 | 454 | 442 | 466 | 465 | 415 | 443
Cc1nc(-c2ccc(-c3ccc(C(=O)N4CCc5cc6c(cc54)C4(CCN(C)CC4)CO6)cc3)c(C)c2)no1 | 420 | 467 | 439 | 454 | 477 | 449 | 464 | 460 | 447
O=C(CCCN1CCC(O)(c2ccc(Cl)cc2)CC1)c1ccc(F)cc1 |  |  |  | 467 | 471 | 470 | 459 | 466 | 470
O=C1\C=C(OC2=C(C=CC=C12)C3=CC=CC4=C3SC5=C4C=CC=C5)\N6CCOCC6 | 446 | 425 | 432 | 474 | 464 | 467 | 471 | 456 | 469
Cc1ccc(C(=O)Nc2ccc([S+](=O)([O-])O)c3cc([S+](=O)([O-])O)cc([S+](=O)([O-])O)c23)cc1NC(=O)c1cccc(NC(=O)Nc2cccc(C(=O)Nc3cc(C(=O)Nc4ccc([S+](=O)([O-])O)c5cc([S+](=O)([O-])O)cc([S+](=O)([O-])O)c45)ccc3C)c2)c1 | 414 | 393 | 373 | 350 | 406 | 396 | 390 | 392 | 381
CN(C[C@@H]1COCCO1)[S+]([O-])(=O)NC2=CC3=C(C=C2)\C=C/C4=C(C=C(C=N4)C5=C[N](C)N=C5)C3=O | 314 | 301 | 292 | 324 | 371 | 355 | 379 | 374 | 357

From the supplement of paper PMC11451515
